According to article PMC5609913, “Structure based design, synthesis and activity studies of small hybrid molecules as HDAC and G9a dual inhibitors” (Oncotarget, 2017):
Read-outs that look alike come from different tables or passages of the source.

Experiments:
G9a = molecular target: T1, G9a (Homo sapiens, UniProt Q96KQ7); assay: H3K9Me2 cell immunofluorescence In-Cell Western (ICW) assay in MDA-MB-231; type: cell-based; conditions: MDA-MB-231 cell line, 48 h exposure
T1 construct: endogenous in cells; host or cells: MDA-MB-231
T1 sequence (Q96KQ7 1-1210): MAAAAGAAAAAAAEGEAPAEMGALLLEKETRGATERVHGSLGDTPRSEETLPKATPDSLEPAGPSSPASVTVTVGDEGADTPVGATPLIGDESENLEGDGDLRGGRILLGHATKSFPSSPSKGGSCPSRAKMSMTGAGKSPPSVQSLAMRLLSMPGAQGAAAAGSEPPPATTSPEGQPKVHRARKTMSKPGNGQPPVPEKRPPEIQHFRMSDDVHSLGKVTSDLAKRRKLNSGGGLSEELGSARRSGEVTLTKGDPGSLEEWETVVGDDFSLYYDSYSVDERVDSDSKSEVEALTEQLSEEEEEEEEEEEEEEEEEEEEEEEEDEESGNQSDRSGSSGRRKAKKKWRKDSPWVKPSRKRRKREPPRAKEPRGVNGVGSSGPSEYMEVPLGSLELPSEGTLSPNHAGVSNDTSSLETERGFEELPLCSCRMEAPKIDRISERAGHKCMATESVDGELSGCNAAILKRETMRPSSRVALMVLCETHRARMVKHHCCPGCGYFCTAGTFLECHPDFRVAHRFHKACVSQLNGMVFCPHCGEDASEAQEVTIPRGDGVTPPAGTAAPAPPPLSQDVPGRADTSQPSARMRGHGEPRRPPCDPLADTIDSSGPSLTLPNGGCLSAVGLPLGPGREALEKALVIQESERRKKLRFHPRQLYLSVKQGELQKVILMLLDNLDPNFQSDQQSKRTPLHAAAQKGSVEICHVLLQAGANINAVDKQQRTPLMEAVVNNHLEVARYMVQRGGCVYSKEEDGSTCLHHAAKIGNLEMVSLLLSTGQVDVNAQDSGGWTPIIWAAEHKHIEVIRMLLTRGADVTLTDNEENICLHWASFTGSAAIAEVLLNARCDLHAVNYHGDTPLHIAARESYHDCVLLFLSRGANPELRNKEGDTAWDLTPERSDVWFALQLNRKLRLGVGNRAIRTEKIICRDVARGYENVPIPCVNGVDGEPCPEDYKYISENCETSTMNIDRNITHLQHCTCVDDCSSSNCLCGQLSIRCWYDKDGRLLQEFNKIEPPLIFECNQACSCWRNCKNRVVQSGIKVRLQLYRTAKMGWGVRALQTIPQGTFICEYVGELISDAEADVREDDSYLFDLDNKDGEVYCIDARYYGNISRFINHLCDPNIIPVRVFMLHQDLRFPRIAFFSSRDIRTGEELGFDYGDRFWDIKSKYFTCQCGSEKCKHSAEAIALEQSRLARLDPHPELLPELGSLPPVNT
Procedure: After the incubation, the media was removed and 100 μl fixation and permeabilization solution (2% formaldehyde in PBS) for fixation was added for 30 min. And then use 200 μl 0.1% Triton X100 in PBS washing solution to wash (allow wash to shake on a plate shaker for 5 min). After five washes, cells were blocked for 1 h with 150 μl blocking buffer to each well (1% BSA in PBS) (allow blocking at room temperature with moderate shaking on a plate shaker). After 1 h, remove the blocking buffer from the blocking step and add primary antibody in blocking buffer to cover the bottom of each well. […] The plates were read on an Odyssey CLX (LiCor) scanner at both 800 nm (H3K9me2 signal) and 700 nm (cell tag 700 stain signal) channels. IC50s were calculated using GraphPad Prizm statistical package with sigmoidal variable slope dose response curve fit.

MCF-7 cells = assay: Cell anti-proliferation / toxicity assay (CCK-8), MCF-7; type: cell-based; conditions: Homo sapiens, MCF7, 72 h, CCK-8, read-out: EC50 MCF-7
Procedure: Cell anti-proliferation assays were performed to determine the toxicity of these inhibitors. […] These compounds were further evaluated against the control cell line HEK293 to test their toxicity with a non-cancerous cell line.
And then the cells were exposed to the different inhibitors with various concentrations for 72 h. […] EC50s were calculated using GraphPad Prizm statistical package with sigmoidal variable slope dose response curve fit.

[1] = Supplementary Table 4, >100 = not reached at 100 μM
[2] = Table 6, mean ± SD of triplicates

IC50 (G9a) [µM] | Structure (SMILES) | EC50 (MCF-7 cells; [1]) [µM] | EC50 (MCF-7 cells; [2]) [µM]
66.6 ± 3.98 | COc1cc2nc(NCCNC(=O)CCCCCC(=O)NO)nc(NC3CCN(C(C)C)CC3)c2cc1OC [Compound 5a, N1-hydroxy-N7-(2-((4-((1-isopropylpiperidin-4-yl)amino)-6,7-dimethoxyquinazolin-2-yl)amino)ethyl)heptanediamide] | > 100 | –
87.4 ± 5.44 | COc1cc2nc(NCCNC(=O)CCCCCC(=O)NO)nc(NC3CCN(Cc4ccccc4)CC3)c2cc1OC [Compound 5b, N1-(2-((4-((1-benzylpiperidin-4-yl)amino)-6,7-dimethoxyquinazolin-2-yl)amino)ethyl)-N7-hydroxyheptanediamide] | 74.6 ± 1.81 | –
54.6 ± 3.05 | COc1cc2nc(NCCNC(=O)CCCC(=O)NO)nc(NC3CCN(C(C)C)CC3)c2cc1OC [Compound 7a, N1-hydroxy-N5-(2-((4-((1-isopropylpiperidin-4-yl)amino)-6,7-dimethoxyquinazolin-2-yl)amino)ethyl)glutaramide] | > 100 | –
47 ± 3.33 | COc1ccc2c(NC3CCN(C)CC3)nc(NCCNC(=O)CCCCC(=O)NO)nc2c1 [Compound 15a, N1-hydroxy-N6-(2-((7-methoxy-4-((1-methylpiperidin-4-yl)amino)quinazolin-2-yl)amino)ethyl)adipamide] | > 100 | –
45.7 ± 1.76 | COc1ccc2c(NC3CCN(C)CC3)nc(NCCNC(=O)CCCC(=O)NO)nc2c1 [Compound 16a, N1-hydroxy-N5-(2-((7-methoxy-4-((1-methylpiperidin-4-yl)amino)quinazolin-2-yl)amino)ethyl)glutaramide] | > 100 | –

Continued, compound first:

Structure (SMILES) | IC50 (G9a) [µM] | EC50 (MCF-7 cells; [1]) [µM] | EC50 (MCF-7 cells; [2]) [µM]
COc1cc2nc(NCCNC(=O)CCCCCCC(=O)NO)nc(NC3CCN(C)CC3)c2cc1OC [Compound 4, N1-(2-((6,7-dimethoxy-4-((1-methylpiperidin-4-yl)amino)quinazolin-2-yl)amino)ethyl)-N8-hydroxyoctanediamide] | 96.7 ± 1.68 | > 100 | –
COc1cc2nc(NCCNC(=O)CCCCCCC(=O)NO)nc(NC3CCN(C(C)C)CC3)c2cc1OC [Compound 4a, N1-hydroxy-N8-(2-((4-((1-isopropylpiperidin-4-yl)amino)-6,7-dimethoxyquinazolin-2-yl)amino)ethyl)octanediamide] | 74.2 ± 1.94 | > 100 | –
COc1cc2nc(NCCNC(=O)CCCC(=O)NO)nc(NC3CCN(C)CC3)c2cc1OC [Compound 7, N1-(2-((6,7-dimethoxy-4-((1-methylpiperidin-4-yl)amino)quinazolin-2-yl)amino)ethyl)-N5-hydroxyglutaramide] | 76.7 ± 0.89 | > 100 | –
COc1ccc2c(NC3CCN(Cc4ccccc4)CC3)nc(NCCNC(=O)CCCCCCC(=O)NO)nc2c1 [Compound 13, N1-(2-((4-((1-benzylpiperidin-4-yl)amino)-7-methoxyquinazolin-2-yl)amino)ethyl)-N8-hydroxyoctanediamide] | 37.8 ± 2.8 | – | 79.4 ± 2.72
COc1ccc2c(NC3CCN(Cc4ccccc4)CC3)nc(NCCNC(=O)CCCCCC(=O)NO)nc2c1 [Compound 14, N1-(2-((4-((1-benzylpiperidin-4-yl)amino)-7-methoxyquinazolin-2-yl)amino)ethyl)-N7-hydroxyheptanediamide] | 7.14 ± 1.62 | – | 37.4 ± 2.2
COc1ccc2c(NC3CCN(Cc4ccccc4)CC3)nc(NCCNC(=O)CCCCC(=O)NO)nc2c1 [Compound 15, N1-(2-((4-((1-benzylpiperidin-4-yl)amino)-7-methoxyquinazolin-2-yl)amino)ethyl)-N6-hydroxyadipamide] | 72.1 ± 1.37 | > 100 | –
COc1ccc2c(NC3CCN(Cc4ccccc4)CC3)nc(NCCNC(=O)CCCC(=O)NO)nc2c1 [Compound 16, N1-(2-((4-((1-benzylpiperidin-4-yl)amino)-7-methoxyquinazolin-2-yl)amino)ethyl)-N5-hydroxyglutaramide] | 90.3 ± 3.75 | 57.3 | –
COc1cc2nc(N3CCCN(C)CC3)nc(NC3CCN(C(=O)CCCCCCC(=O)NO)CC3)c2cc1OC [Compound 19, 8-(4-((6,7-dimethoxy-2-(4-methyl-1,4-diazepan-1-yl)quinazolin-4-yl)amino)piperidin-1-yl)-N-hydroxy-8-oxooctanamide] | 99.6 ± 3.13 | > 100 | –
COc1cc2nc(N3CCCN(C)CC3)nc(NC3CCN(C(=O)CCCCCC(=O)NO)CC3)c2cc1OC [Compound 20, 7-(4-((6,7-dimethoxy-2-(4-methyl-1,4-diazepan-1-yl)quinazolin-4-yl)amino)piperidin-1-yl)-N-hydroxy-7-oxoheptanamide] | 97.5 ± 2.78 | > 100 | –
COc1ccc2c(NCCNC(=O)CCCCCC(=O)NO)nc(N3CCCN(C)CC3)nc2c1 [Compound 22, N1-hydroxy-N7-(2-((7-methoxy-2-(4-methyl-1,4-diazepan-1-yl)quinazolin-4-yl)amino)ethyl)heptanediamide] | 60.6 ± 3.66 | > 100 | –
